Here are results for eleven compounds from PMC3875304 (Journal of medicinal chemistry, 2009).

SMILES strings stand for the structures. Entries after “also recorded” stand apart in the source; their conditions may differ. Read-outs that look alike come from different tables or passages of the source. Bounds are passed on as bounds.

Test [1] addresses T1, M4 (Homo sapiens, UniProt P08173).
T1 sequence (P08173 1-479): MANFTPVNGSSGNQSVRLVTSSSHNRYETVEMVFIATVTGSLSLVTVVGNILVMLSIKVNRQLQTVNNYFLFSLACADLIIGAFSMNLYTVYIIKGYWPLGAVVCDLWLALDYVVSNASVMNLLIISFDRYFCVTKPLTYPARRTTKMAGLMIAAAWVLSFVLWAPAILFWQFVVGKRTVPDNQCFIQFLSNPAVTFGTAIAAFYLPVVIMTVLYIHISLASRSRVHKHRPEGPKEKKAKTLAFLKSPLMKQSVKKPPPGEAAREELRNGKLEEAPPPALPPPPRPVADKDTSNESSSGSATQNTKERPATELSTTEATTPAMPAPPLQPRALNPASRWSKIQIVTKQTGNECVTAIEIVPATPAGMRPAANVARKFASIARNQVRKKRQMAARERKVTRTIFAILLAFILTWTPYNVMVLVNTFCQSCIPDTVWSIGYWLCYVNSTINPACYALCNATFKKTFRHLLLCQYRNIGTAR
Format: cell-based. Conditions: for M4 potentiator activity: fixed ACh ~EC20, Ca2+ assay, Gqi5 cotransfected, up to 30 µM.

Test [2] addresses T2, M2 (Homo sapiens, UniProt P08172).
T2 sequence (P08172 1-466): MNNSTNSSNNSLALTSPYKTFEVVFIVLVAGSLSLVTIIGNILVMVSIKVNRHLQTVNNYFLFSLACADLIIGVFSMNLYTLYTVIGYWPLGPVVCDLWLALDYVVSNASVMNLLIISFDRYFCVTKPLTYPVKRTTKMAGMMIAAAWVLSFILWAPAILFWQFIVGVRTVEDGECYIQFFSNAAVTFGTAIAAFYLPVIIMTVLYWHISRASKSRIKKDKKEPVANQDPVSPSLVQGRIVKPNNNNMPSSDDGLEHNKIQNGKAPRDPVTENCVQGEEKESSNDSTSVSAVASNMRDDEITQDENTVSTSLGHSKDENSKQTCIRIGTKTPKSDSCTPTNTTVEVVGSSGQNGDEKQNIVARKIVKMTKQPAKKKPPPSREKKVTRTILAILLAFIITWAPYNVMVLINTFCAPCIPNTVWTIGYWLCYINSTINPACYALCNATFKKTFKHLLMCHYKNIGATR
Format: cell-based. Conditions: fixed ACh ~EC20, Ca2+ assay, Gqi5 cotransfected, up to 30 µM.

Test [3] addresses T3, M1 (Homo sapiens, UniProt P11229).
T3 sequence (P11229 1-460): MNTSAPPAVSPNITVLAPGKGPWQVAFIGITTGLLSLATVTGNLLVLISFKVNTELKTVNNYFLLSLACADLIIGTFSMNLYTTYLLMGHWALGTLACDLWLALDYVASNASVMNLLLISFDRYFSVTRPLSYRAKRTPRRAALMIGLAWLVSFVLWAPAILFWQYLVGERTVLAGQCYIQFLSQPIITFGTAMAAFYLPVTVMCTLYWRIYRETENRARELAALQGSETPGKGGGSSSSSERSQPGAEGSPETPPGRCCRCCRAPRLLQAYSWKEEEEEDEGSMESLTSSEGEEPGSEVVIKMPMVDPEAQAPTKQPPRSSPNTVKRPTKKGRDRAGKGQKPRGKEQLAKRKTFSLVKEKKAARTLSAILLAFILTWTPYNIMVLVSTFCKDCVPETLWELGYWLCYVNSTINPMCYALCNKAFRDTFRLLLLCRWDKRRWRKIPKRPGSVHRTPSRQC
In words: Ca2+ mobilization potentiation of ACh ~EC20, M1 CHO cells. It is filed as cell-based.

The target in test [4] is T3, M1. To be noted: fixed 30 µM compound, at M1; cited from earlier work.
For test [5], the target named is T4, M5 (Homo sapiens, UniProt P08912).
T4 sequence (P08912 1-532): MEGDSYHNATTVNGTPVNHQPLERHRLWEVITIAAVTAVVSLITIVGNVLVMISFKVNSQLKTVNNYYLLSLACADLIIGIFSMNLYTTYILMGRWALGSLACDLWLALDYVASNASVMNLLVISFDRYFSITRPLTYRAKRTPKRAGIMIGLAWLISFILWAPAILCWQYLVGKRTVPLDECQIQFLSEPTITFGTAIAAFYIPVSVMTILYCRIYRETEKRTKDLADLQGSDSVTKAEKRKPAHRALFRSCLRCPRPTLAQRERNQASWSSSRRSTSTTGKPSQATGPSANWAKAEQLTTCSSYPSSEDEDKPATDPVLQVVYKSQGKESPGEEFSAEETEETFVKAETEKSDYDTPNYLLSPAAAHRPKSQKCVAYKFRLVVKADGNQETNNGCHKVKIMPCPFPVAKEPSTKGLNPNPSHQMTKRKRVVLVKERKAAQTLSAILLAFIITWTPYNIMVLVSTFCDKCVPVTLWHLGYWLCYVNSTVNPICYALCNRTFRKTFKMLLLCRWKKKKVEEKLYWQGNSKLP
In words: Ca2+ mobilization assay, M5 CHO cells. It is filed as cell-based. (In general: Calcium flux is commonly read through the fluorescence of an indicator in the cells.)

Test [6] has as its target T4, M5. In words: [3H]-NMS competition binding, M5-CHO membrane preparations. To be noted: up to 30 µM, M5-CHO membranes.

Take `O=C1C(=O)N(Cc2ccc(C(F)(F)F)cc2)c2c(Cl)cccc21` [compound 56]: in test [1], the EC50 (in general, the concentration at which the effect is half-maximal) is greater than 10 µM and the M4 potentiator activity entry was “modest potentiation”. Moreover, the M2 potentiator activity result in test [2] was “modest potentiation”.
For `O=C1C(=O)N(Cc2ccccc2C(F)(F)F)c2c(F)cccc21` [compound 49], the half-maximal effective concentration (EC50) in test [3] was greater than 30 µM.
Same read-out and setting: the figure for `COc1ccc(CN2C(=O)C(=O)c3ccccc32)cc1` [compound 22] is greater than 10 µM.
`O=C1C(=O)N(Cc2ccc(Br)cc2)c2ccccc21` [compound 113]: the M4 potentiator activity entry in test [1] was “lacked potentiator effects; also recorded: inactive”. For the same compound, the M2 potentiator activity result in test [2] is “lacked potentiator effects; also recorded: inactive”. The “leftward shift of full ACh CRC” value in test [4] was 14 fold.
`COc1ccc(CN2C(=O)C(=O)c3cc(OC(F)(F)F)ccc32)cc1` [compound 42]: the “intrinsic agonist activity at M5” value in test [5] (compound alone, absence of ACh, up to 30 µM, Ca2+ assay) is reported as “absence of intrinsic agonist activity; also recorded: lacked intrinsic agonist activity”. Also, the “selectivity for M5 versus M1 and M3” value in test [5] (from EC50 in Ca2+ assays) is listed as greater than 30 fold. The “selectivity for M5 versus the other four subtypes” value in test [5] (from EC50 in Ca2+ assays) is recorded as greater than 30 ×. Besides, the M4 potentiator activity result in test [1] is “lack of potentiation activity; also recorded: inactive”; in test [1] (listed as VU0238429), “no M2 or M4 potentiator activity”. The “competition with [3H]-NMS binding to M5” value in test [6] was “lack of competition; also recorded: lacked competition”. The EC50 in test [3] was greater than 30 µM. In addition, the M2 potentiator activity result is “lack of potentiation activity; also recorded: inactive” in test [2] and “no M2 or M4 potentiator activity” in test [2] (listed as VU0238429).
As to `COc1cccc(CN2C(=O)C(=O)c3c(Cl)ccc(Cl)c32)c1` [compound 38], the EC50 in test [3] was greater than 30 µM.
The same measure, in the same setting: the same measure for `O=C1C(=O)N(Cc2ccc(Br)cc2F)c2ccc(OC(F)(F)F)cc21` [compound 112]: greater than 30 µM; for `Cc1ccccc1CN1C(=O)C(=O)c2cc(OC(F)(F)F)ccc21` [compound 111]: greater than 30 µM; for `COc1cccc(CN2C(=O)C(=O)c3cc(OC(F)(F)F)ccc32)c1` [compound 41]: greater than 30 µM.
Consider `O=C1C(=O)N(Cc2ccc(OC(F)(F)F)cc2)c2ccc(OC(F)(F)F)cc21` [compound 110], for which, in test [3], the EC50 was greater than 30 µM.
Same read-out and setting: the same measure for `O=C1C(=O)N(Cc2ccccc2Cl)c2ccc(OC(F)(F)F)cc21` [compound 64]: greater than 30 µM.
